According to ChEMBL document CHEMBL1201862, “PubChem BioAssay data set” (2004):
Calls of active or inactive are those of the source.

Columns and labels:
[1] = A Cell Based Secondary Assay To Explore Cytotoxicity of Compounds that Sensitize Mycobacterium Tuberculosis to Beta-Lactam Antibiotics.; type: functional
cells = type: functional
[2] = target: T1, High affinity choline transporter 1 (Homo sapiens, UniProt Q9GZV3); experiment: CHT inhibitors, dose response, cell-based, 5-point CRC, membrane potential dye (AID 504840); type: functional
T1 sequence (Q9GZV3 whole entry): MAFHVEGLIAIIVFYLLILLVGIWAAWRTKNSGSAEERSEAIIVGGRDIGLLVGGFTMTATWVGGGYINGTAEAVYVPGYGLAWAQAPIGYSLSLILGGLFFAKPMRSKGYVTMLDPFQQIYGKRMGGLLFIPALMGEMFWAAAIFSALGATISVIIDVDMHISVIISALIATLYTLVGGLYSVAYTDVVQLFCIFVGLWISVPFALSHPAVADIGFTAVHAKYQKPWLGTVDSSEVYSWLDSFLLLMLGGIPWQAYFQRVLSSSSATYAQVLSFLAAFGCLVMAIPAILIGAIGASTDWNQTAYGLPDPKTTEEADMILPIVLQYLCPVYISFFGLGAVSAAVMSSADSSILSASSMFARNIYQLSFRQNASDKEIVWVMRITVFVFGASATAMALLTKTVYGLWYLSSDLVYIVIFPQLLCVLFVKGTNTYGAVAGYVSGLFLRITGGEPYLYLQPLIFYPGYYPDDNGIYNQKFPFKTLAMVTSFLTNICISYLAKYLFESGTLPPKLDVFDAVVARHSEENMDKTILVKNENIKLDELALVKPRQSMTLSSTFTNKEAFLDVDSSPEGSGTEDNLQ

Aminopeptidase N = target: T2, Aminopeptidase N (Plasmodium falciparum FcB1/Columbia, UniProt O96935); experiment: P. falciparum M1AAP inhibitors, biochemical, fluorogenic H-Leu-NHMec substrate, 1536-well (AID 1445); parameters: species or system Plasmodium falciparum 3D7, 3D7
T2 sequence (O96935 whole entry): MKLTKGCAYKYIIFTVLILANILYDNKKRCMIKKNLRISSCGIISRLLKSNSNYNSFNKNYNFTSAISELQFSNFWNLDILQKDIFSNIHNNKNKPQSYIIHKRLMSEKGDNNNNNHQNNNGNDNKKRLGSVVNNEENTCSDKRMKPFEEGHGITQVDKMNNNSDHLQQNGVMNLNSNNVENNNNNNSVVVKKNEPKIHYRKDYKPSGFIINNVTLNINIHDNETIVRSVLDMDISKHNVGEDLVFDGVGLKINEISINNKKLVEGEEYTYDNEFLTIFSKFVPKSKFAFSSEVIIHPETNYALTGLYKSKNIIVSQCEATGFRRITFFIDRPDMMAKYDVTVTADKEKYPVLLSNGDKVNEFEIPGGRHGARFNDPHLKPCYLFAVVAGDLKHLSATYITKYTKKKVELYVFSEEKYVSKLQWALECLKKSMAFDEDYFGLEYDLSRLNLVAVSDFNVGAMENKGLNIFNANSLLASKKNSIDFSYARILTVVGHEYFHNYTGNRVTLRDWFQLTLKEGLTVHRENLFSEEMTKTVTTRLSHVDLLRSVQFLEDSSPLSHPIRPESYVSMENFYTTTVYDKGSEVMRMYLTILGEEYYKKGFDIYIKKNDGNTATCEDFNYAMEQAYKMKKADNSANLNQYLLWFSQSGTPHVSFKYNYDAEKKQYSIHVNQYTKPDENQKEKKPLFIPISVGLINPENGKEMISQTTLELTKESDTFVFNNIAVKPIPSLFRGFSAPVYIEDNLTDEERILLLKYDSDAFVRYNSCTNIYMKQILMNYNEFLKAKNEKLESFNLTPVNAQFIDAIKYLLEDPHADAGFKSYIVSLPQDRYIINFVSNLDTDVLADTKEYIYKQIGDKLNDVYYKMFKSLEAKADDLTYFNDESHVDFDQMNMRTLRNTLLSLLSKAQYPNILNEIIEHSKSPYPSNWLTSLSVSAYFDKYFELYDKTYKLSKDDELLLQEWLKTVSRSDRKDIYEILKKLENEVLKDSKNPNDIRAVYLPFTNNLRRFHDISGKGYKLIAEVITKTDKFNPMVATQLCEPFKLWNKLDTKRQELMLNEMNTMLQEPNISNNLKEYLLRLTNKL

[3] = target: Induced myeloid leukemia cell differentiation protein Mcl-1 (Homo sapiens, UniProt Q07820); type: functional
Nonstructural protein 1 = Nonstructural protein 1 (Influenza A virus, UniProt Q194T2); type: functional, Influenza A virus (A/California/07/2009(H1N1))
[4] = growth suppression of PTEN-null colon cells, dose response, cell-based, HCT116 PTEN knockout (AID 1047); type: functional;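 note: HCT116 colon tumor cells with PTEN knocked out; cells exposed to compound for 60 hours before readout; potency for loss of cell viability measured by luminescence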
[5] = growth suppression of beta-catenin-knockout colon cells, dose response, cell-based, HCT116, human colon tumor (AID 1045); type: functional;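 note: HCT116 colon tumor cells with beta catenin knocked out; cells exposed to compound for 60 hours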
[6] = target: Glucose-6-phosphate 1-dehydrogenase (Homo sapiens, UniProt P11413); experiment: human G6PD enzyme inhibitors, dose response, selectivity assay for P. falciparum G6PD inhibitor project, biochemical, fluorescence (AID 504792); type: functional
[7] = Luminescence Cell-Based Dose Confirmation HTS to Identify Activators of 5'UTR Stem-Loop Driven Alpha-Synuclein mRNA Translation in H4 Neuroglioblastoma Cells. [Related pubchem assays: 1829 (Project Summary), 1814 (Primary HTS)]; type: functional
[8] = Luminescence Cell-Based Dose Response HTS to Identify Activators of Luciferase Translation or Activity in H4 […] Cells. [Related pubchem assays: 1829 (Project Summary), 1814 (Primary HTS)]; type: functional
H4 = experiment: Luminescence Cell-Based Dose Response HTS to Identify Activators of 5'UTR Stem-Loop Driven Prion Protein mRNA Translation in H4 Neuroglioblastoma Cells. [Related pubchem assays: 1829 (Project Summary), 1814 (Primary HTS)]; type: functional; details: Homo sapiens
[9] = target: T3, Long-chain-fatty-acid--AMP ligase FadD28 (Mycobacterium tuberculosis, UniProt P9WQ59); experiment: Fluorescence polarization aasay to screen for inhibitors that compete for the binding of FadD28 to a bisubstrate Measured in Biochemical System Using Plate Reader - 2147-01_Inhibitor_Dose_CherryPick_Activity.; type: functional, Mycobacterium tuberculosis H37Rv
T3 sequence (P9WQ59 whole entry): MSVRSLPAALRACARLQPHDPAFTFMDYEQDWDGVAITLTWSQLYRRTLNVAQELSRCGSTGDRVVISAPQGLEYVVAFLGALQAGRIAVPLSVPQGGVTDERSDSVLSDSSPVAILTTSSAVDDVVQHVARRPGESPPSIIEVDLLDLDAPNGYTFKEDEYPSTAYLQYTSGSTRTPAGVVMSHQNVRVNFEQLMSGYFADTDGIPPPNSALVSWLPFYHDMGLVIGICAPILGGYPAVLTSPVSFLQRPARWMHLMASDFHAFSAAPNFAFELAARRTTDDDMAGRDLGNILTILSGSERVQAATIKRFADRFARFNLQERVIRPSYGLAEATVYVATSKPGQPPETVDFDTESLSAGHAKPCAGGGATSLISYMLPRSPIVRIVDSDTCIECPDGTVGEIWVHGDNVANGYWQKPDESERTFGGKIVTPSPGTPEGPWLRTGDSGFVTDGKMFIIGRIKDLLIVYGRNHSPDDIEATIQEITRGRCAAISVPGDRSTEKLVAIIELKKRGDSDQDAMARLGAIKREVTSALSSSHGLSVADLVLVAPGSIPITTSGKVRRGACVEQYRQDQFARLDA

[10] = cytotoxicity in HEK-293T cells, dose response, cytotoxicity control for TCR NF-kB inhibitor project, luminescence, T-cell screen hits (AID 489026); type: functional, cell-based;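 note: cells exposed to compound about 14 hours before the viability readout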
[11] = target: T4, Heat shock factor protein 1 (Mus musculus, UniProt P38532); experiment: inhibition of MG132-induced HSE-luciferase signal, confirmation, cell-based, NIH3T3, luminescence, dose retest (AID 2382); type: functional;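 note: NIH3T3 fibroblasts with HSF1-driven luciferase reporter stressed by proteasome inhibitor MG132; luminescence from HSF1-driven luciferase expression after 8 hours of MG132 stress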
T4 sequence (P38532 whole entry): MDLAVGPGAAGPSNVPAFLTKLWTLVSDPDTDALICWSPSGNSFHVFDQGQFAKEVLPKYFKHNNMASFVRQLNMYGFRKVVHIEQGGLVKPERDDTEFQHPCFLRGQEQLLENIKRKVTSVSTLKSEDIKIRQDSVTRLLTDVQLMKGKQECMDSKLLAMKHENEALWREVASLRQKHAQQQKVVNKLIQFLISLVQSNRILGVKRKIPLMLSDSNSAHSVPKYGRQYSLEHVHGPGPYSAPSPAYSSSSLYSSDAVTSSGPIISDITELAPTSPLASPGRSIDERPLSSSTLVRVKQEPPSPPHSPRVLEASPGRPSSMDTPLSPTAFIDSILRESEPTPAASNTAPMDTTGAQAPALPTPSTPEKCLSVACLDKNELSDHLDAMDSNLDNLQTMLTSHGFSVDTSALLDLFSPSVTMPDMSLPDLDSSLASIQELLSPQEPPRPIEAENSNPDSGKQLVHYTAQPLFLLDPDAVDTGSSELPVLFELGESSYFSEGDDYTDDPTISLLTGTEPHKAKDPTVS

[12] = target: T5, Microphthalmia-associated transcription factor (Homo sapiens, UniProt O75030); experiment: TRPM1 promoter luciferase signal decrease, dose response, MITF inhibitor project, cell-based, SK-MEL-5, cherry-picked, set 3 (AID 493073); type: functional
T5 sequence (O75030 whole entry): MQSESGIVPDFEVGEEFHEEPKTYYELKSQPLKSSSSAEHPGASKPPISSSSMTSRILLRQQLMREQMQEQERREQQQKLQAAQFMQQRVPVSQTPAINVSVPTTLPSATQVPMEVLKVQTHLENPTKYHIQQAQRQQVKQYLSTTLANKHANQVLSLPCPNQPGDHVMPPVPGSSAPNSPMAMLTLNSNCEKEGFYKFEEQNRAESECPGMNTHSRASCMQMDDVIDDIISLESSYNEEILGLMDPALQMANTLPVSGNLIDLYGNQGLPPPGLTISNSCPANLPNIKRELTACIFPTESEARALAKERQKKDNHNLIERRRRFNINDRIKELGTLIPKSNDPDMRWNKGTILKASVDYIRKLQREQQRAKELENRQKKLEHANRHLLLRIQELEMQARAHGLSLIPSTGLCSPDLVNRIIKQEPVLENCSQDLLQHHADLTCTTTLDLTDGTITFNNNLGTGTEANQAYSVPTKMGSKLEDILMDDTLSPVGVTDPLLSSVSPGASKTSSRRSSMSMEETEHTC

[13] = target: T6, RNA-binding protein pos-1 (Caenorhabditis elegans, UniProt G5EF15); experiment: inhibitors of POS-1/mex-3 RNA binding, dose response, biochemical, fluorescence polarization (AID 1964);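 note: purified POS-1 fused to maltose binding protein made in E. coli; potency of compounds blocking POS-1 binding to fluorescent RNA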
T6 sequence (G5EF15 whole entry): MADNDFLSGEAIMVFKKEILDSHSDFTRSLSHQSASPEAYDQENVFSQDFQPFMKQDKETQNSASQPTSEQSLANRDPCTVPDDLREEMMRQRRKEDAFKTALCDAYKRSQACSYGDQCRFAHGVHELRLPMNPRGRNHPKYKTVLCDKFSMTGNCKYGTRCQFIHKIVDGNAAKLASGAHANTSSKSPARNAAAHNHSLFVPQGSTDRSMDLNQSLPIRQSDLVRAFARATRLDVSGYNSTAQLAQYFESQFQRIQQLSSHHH

[14] = target: T7, Zinc finger protein mex-5 (Caenorhabditis elegans, UniProt Q9XUB2); experiment: MEX-5/TCR-2 RNA interaction inhibitors, dose response, biochemical, C. elegans, fluorescence polarization (AID 1960)
T7 sequence (Q9XUB2 whole entry): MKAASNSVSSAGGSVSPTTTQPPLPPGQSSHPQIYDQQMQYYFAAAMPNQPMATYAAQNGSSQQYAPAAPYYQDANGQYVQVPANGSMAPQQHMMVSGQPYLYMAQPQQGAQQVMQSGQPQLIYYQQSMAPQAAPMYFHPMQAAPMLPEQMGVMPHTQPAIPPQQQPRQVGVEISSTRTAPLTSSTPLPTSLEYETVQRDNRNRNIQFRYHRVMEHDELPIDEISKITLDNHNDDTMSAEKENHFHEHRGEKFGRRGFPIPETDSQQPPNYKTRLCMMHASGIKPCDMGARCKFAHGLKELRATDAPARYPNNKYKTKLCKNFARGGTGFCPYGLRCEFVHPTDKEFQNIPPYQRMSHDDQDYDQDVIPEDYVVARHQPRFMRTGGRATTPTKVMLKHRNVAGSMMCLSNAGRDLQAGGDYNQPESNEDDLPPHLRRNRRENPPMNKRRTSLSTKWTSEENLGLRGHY

Nonstructural protein 1, sequence (Q194T2 whole entry): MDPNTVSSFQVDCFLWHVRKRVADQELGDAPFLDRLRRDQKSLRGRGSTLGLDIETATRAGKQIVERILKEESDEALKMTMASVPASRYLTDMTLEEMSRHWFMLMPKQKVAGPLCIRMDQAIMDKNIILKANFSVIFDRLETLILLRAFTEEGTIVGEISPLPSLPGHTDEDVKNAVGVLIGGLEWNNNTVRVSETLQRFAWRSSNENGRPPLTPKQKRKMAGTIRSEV
Glucose-6-phosphate 1-dehydrogenase, sequence (P11413 whole entry): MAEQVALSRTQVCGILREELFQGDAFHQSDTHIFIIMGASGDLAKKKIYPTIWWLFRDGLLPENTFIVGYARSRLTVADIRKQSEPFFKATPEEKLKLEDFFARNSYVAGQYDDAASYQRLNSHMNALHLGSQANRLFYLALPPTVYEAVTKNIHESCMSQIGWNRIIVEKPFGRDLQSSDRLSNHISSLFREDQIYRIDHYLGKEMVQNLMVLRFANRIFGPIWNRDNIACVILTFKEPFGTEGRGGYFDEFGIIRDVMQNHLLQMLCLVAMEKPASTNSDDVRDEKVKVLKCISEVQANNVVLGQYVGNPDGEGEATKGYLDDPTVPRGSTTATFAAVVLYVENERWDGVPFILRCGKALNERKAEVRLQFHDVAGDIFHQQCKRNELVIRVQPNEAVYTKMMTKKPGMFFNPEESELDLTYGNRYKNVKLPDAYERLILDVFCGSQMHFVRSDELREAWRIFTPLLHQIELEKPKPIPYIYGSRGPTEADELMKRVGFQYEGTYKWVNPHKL
Induced myeloid leukemia cell differentiation protein Mcl-1, sequence (Q07820 whole entry): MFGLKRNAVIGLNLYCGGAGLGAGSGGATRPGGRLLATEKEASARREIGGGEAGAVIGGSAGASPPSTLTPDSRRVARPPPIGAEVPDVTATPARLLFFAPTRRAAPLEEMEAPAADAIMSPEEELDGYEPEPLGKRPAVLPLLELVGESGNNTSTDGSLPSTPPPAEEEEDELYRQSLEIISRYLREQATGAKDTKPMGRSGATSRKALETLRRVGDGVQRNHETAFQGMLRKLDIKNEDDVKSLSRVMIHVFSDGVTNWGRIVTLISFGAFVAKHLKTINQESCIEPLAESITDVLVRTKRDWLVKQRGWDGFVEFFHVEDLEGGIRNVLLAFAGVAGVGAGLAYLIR

## O=C(Nc1nc2ccccc2n1CCN1CCCC1)C1CCCCC1
[1]
  CC50: > 40 µM (active)
cells
  IC50: 46.9 µM (active)

## CC/C(=C(/CC)c1ccc(O)cc1)c1ccc(O)cc1 [DIETHYLSTILBESTROL]
[2]
  IC50: 12.6 µM (active)

## CCCC(C)C1(CC)C(=O)N=C(Nc2ccccc2OC)NC1=O (stereo unspecified)
Aminopeptidase N
  IC50: 52.1 µM (active)

## Cc1ccc(N2C(=O)/C(=C\NNc3ccc(S(=O)(=O)N4CCOCC4)cc3[N+](=O)[O-])c3ccccc3C2=O)c(C)c1
[3]
  IC50: 1.8 µM (not active)
Nonstructural protein 1
  IC50: 8.94 µM (active)
[2]
  IC50: 12.3 µM (active)

## O=C(Nc1ccc2oc(-c3ccc(Cl)c(Cl)c3)nc2c1)c1nc[nH]n1
[1]
  CC50: 16.4 µM (active)
[4]
  EC50: 3.34 µM (active)
[5]
  EC50: 4.31 µM (active)

## COCc1cc(O)n2nc(C(C)(C)C)cc2n1
[6]
  IC50: > 80 µM (inactive)

## CCCN1C(=O)/C(=C2\SC(N3CCCCC3)=NC2=O)c2ccccc21
[7]
  EC50: 15.2 µM (active)
[8]
  EC50: 64.2 µM (active)
H4
  EC50: > 120 µM (not active)
Nonstructural protein 1
  IC50: 28.5 µM (active)

## COc1cc(/C=N/NC(=O)C(Cc2c[nH]c3ccccc23)NC(=O)OCC(C)C)cc([N+](=O)[O-])c1O (stereo unspecified)
Aminopeptidase N
  IC50: 16.7 µM (active)
[9]
  AC50: 65.6 µM (active)

## CCn1c(SCc2nc(-c3ccc(Cl)cc3)no2)nnc1-c1ccco1
[2]
  IC50: 15.2 µM (active)

## COc1cc(-c2noc(C)c2-c2ccc3[nH]ccc3c2)cc(OC)c1OC
[10]
  IC50: 32.5 µM (inactive)

## CC(C)c1ccc(/C=N/Nc2ccc(C(=O)O)cc2)cc1
[11]
  EC50: < 0.16 µM (active)
[10]
  IC50: > 80 µM (inactive)
[12]
  AC50: 3.53 µM (active)

## COc1ccc(/C=C2\SC(=S)N(C(C(=O)O)c3ccccc3)C2=O)c(OC)c1 (stereo unspecified)
Aminopeptidase N
  IC50: 21.9 µM (active)

## CN(C)CCCN(C(=O)/C=C/c1cccs1)c1nc2ccc(F)cc2s1
[13]
  EC50: > 300 µM (not active)
[1]
  CC50: 12.4 µM (active)
[14]
  EC50: > 300 µM (not active)
